Measurements from patent US4062950A, “Amino sugar derivatives” (priority 1973, dated 1977).
Where two headings read alike, the source gives them in different places.

Experiments:
maltase = test: In vitro maltase test; assay type: biochemical, pig; conditions: Table II
Procedure: One maltase inhibitor unit (MIU) is defined as the amount of inhibitor which inhibits two maltase units to the extent of 50%. One maltase unit (MU) is the amount of enzyme which in one minute, under the test conditions specified below, splits 1 μmol of maltose into 2 μmol of glucose. The μmol of glucose formed are determined quantitatively by means of the glucose oxidase reaction under conditions such that further splitting of maltose by the maltase no longer takes place. To carry out the test, 0.05 ml of solubilized maltase [from the mucous membrane of the small intestine of the pig, according to B. Borgstrom, A, Dahlquist, Acta Chem, Scan. […] The mixture is equilibrated for 10 minutes at 35° C and 0.1 ml of an 0.05 M maltose solution in 0.1 M sodium maleate buffer of pH 6.0, pre-warmed to 35° C, is then added. The mixture is incubated for 20 minutes at 35° C and the maltase reaction is stopped by addition of 1 ml of the glucose oxidase reagent described above, and the incubation is continued for a further 30 minutes at 35° C. Thereafter, 1 ml of 50% strength sulfuric acid is added and a measurement carried out at 545 nm against a corresponding blank.

saccharase = target: T1, saccharase (Rattus norvegicus, UniProt P23739); test: In vivo saccharase inhibition (sucrose overfeeding test) in the fasting rat; conditions: for ED50: read-out: Saccharase Inhibition (ED50 mg/kg)
T1 construct: from tissue; host or cells: intestine of the living rat (endogenous enzyme)
Procedure: The produce an alimentary hyperglycemia and hyperinsulinaemia, groups of 6 fasting rats are given (a) 2.5 g of sucrose, (b) 2.5 g of maltose or (c) 1 g of boiled starch orally, in aqueous solution or suspension. Six other rats are given the same carbohydrates in the same amount and a glycoside hydrolase inhibitor in the amount indicated. In addition, six other rats are given an appropriate volume of saline. The blood glucose and the serum insulin are then measured at short intervals of time, in the blood from the retro-orbital venous plexus. Blood glucose determinations are carried out in the Auto-Analyser device (Technicon), according to Hoffmann: J. biol.

pancreas-α-amylase = target: T2, pancreas-α-amylase (Sus scrofa, UniProt P00690); test: In vitro amylase test; assay type: biochemical; conditions: for α-Amylase Inhibition / α-Amylase Inhibition In Vitro: in vitro; for α-Amylase Inhibition: Table II; for α-Amylase Inhibition In Vitro: Table VI; for amylase inhibiting activity of isolated product: isolated product of the Examples
T2 sequence (P00690 16-511): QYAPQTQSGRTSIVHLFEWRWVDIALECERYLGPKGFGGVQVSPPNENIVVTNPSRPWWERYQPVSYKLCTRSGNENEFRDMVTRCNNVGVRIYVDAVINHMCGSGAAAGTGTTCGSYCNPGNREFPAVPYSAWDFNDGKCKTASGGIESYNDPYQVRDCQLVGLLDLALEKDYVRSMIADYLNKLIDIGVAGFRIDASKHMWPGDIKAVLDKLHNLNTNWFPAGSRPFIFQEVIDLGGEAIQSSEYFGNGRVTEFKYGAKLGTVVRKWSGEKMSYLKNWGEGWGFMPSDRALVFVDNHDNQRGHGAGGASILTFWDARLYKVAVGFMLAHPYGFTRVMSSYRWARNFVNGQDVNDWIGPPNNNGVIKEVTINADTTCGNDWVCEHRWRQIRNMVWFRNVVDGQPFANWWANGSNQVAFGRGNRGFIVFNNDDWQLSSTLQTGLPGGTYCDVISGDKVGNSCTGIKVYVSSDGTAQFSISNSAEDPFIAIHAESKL
Procedure: One amylase inhibitor unit (1 AIU) is defined as the amount of inhibitor which inhibits two amylase units to the extent of 50%. One amylase unit (AU) is the amount of enzyme which under the test conditions specified below splits 1 μequivalent of glucoside bonds in the starch per minute. The μequivalents of split bonds are determined colorimetrically as μequivalents of reducing sugars formed, using dinitrosalicylic acid, and are quoted as μequivalents of maltose equivalents, using a maltose calibration curve. To carry out the test, 0.1 ml of amylase solution (20-22 AU/ml) are mixed with 0-10 μg of inhibitor or 0-20 μl of the solution to be tested in 0.4 ml of 0.02 M sodium glycerophosphate buffer/0.001 M CaCl2, pH 6.9, and the mixture is equilibrated for 10-20 minutes in a water bath at 35° C. The mixture is then incubated for 5 minutes at 35° C with 0.5 ml of a 1% strength starch solution which has been pre-warmed to 35° C (soluble starch No. 1,252 from Merck, Darmstadt), and thereafter 1 ml of dinitrosalicyclic acid reagent (according to P. bernfeld in Colowick-Kaplan, Meth. Enzymol., Volume l, page 149) is added. To develop the color, the batch is heated for 5 minutes on a boiling water bath and then cooled, and 10 ml of distilled water are added. The extinction at 540 nm is measured against a correspondingly made-up blank without amylase. […] The percentage inhibition is plotted as a function of the quotient [formula]

[1] = 2.5 g sucrose + 25 SIU oral, 15 Min.
[2] = 2.5 g sucrose + 25 SIU oral, 30 Min.
[3] = 2.5 g sucrose + 25 SIU oral, 45 Min.
[4] = 2.5 g sucrose + 50 SIU oral, 15 Min.
[5] = 2.5 g sucrose + 50 SIU oral, 30 Min.
[6] = 2.5 g sucrose + 50 SIU oral, 45 Min.
[7] = 2.5 g sucrose + 100 SIU oral, 15 Min.
[8] = 2.5 g sucrose + 100 SIU oral, 30 Min.
[9] = 2.5 g sucrose + 100 SIU oral, 45 Min.
[10] = ED50, sucrose, fasting rat, Table IV, read-out: Saccharase Inhibition In Vitro (ED50 mg/kg)

T1 sequence (P23739 1014-1841 limits assumed): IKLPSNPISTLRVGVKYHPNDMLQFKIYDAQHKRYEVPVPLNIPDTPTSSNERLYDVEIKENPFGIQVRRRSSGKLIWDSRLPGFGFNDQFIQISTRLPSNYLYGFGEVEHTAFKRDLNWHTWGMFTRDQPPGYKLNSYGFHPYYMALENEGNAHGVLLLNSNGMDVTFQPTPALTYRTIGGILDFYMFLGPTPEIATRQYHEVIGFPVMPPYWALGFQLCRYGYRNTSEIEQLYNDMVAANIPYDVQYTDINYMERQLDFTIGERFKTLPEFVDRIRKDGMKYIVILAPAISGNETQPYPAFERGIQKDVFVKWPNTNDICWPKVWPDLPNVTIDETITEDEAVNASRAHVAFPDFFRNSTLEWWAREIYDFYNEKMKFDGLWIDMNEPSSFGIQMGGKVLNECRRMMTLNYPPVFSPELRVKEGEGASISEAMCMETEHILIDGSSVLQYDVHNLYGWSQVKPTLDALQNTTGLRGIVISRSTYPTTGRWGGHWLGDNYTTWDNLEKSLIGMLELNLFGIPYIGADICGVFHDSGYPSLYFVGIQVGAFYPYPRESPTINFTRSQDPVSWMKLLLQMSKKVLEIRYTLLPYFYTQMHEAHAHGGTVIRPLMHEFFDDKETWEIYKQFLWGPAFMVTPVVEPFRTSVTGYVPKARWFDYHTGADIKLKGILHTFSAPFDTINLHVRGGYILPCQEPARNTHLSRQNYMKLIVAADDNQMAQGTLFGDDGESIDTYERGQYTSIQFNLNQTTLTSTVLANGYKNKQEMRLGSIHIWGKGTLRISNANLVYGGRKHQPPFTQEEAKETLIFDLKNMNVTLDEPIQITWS
T1 sequence (P23739 2-1013 partner limits assumed): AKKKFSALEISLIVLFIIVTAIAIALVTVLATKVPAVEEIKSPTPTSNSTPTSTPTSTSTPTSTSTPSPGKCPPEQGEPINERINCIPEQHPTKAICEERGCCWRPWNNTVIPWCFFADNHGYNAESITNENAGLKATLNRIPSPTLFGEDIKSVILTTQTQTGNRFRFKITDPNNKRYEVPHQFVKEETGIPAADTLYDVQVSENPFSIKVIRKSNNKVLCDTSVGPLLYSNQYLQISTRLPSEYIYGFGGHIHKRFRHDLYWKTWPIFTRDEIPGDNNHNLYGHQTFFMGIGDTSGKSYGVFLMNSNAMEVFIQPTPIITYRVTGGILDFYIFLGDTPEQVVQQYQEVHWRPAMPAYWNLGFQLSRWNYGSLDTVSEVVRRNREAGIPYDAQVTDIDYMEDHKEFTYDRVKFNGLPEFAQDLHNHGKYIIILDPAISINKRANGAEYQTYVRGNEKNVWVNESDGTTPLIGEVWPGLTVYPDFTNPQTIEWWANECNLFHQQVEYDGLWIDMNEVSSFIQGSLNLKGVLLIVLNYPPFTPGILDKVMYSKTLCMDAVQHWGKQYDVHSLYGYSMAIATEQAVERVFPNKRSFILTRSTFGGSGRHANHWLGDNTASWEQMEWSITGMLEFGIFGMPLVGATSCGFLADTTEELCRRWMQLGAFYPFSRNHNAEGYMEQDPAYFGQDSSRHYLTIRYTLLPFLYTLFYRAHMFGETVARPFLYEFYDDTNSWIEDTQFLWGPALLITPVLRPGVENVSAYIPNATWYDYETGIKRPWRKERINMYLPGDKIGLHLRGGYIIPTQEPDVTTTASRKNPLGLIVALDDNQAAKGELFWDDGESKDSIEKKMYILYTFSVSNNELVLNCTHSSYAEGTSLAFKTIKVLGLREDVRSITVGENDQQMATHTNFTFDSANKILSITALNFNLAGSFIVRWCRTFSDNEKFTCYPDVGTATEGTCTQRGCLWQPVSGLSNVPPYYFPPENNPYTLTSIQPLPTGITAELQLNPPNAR

Maltase Inhibition (maltase) | Blood Glucose (Mean ± SD) (saccharase; [4]) | Blood Glucose (Mean ± SD) (saccharase; [5]) | Blood Glucose (Mean ± SD) (saccharase; [6]) | Blood Glucose (Mean ± SD) (saccharase; [7]) | Blood Glucose (Mean ± SD) (saccharase; [8]) | Blood Glucose (Mean ± SD) (saccharase; [9]) | ED50 (saccharase; [10]) | α-Amylase Inhibition (pancreas-α-amylase) | α-Amylase Inhibition In Vitro (pancreas-α-amylase) | amylase inhibiting activity of isolated product (pancreas-α-amylase) | Blood Glucose (Mean ± SD) (saccharase; 2.5 g sucrose + 200 SIU oral, 15 Min.) | Blood Glucose (Mean ± SD) (saccharase; 2.5 g sucrose + 200 SIU oral, 30 Min.) | Blood Glucose (Mean ± SD) (saccharase; 2.5 g sucrose + 200 SIU oral, 45 Min.) | SMILES | Blood Glucose (Mean ± SD) (saccharase; [1]) | Blood Glucose (Mean ± SD) (saccharase; [2]) | Blood Glucose (Mean ± SD) (saccharase; [3]) | ED50 (saccharase; rat)
5,000 MIU/g | 91 ± 9.4 mg% | 106 ± 7.0 mg% | 94 ± 9.0 mg% | 81 ± 7.2 mg% | 90 ± 8.0 mg% | 97 ± 1.6 mg% | 2.65 mg/kg | 1,400,000 AIU/g | 1,400 AIU/mg | 1.4 × 10^6 AIU/g | – | – | – | C[C@H]1O[C@H](O[C@H]2[C@H](O)[C@@H](O)[C@@H](O[C@H]3[C@H](O)[C@@H](O)C(O)O[C@@H]3CO)O[C@@H]2CO)[C@H](O)[C@@H](O)[C@@H]1N[C@H]1C=C(CO)[C@@H](O[C@H]2O[C@H](CO)[C@@H](O)[C@H](O)[C@H]2O)[C@H](O)[C@H]1O (stereo partly drawn) [Formula V, O-{4,6-bisdesoxy-4-[1 S-(1,4,6/5)-4,5,6-trihydroxy-3-hydroxymethyl-4-O-α-D-glucopyranosyl-(1→4)-cyclohex-2-en-1-ylamino]-α-D-glycopyranosyl}-(1→4)-O-α-D-glucopyranosyl-(1→4)-D-glucopyranose] | 88 ± 11.4 mg% | 101 ± 12.0 mg% | 104 ± 7.4 mg% | –
5,000 MIU/g | 105 ± 11 mg% | 123 ± 5.2 mg% | 128 ± 11 mg% | 89 ± 6.5 mg% | 111 ± 4.1 mg% | 116 ± 3.9 mg% | 3 mg/kg | 300,000 AIU/g | 300 AIU/mg | 0.3 × 10^6 AIU/g | 72 ± 4.6 mg% | 95 ± 9.1 mg% | 104 ± 9.6 mg% | C[C@H]1O[C@H](O[C@H]2[C@H](O)[C@@H](O)C(O)O[C@@H]2CO)[C@H](O)[C@@H](O)[C@@H]1N[C@H]1C=C(CO)[C@@H](O)[C@H](O)[C@H]1O (stereo partly drawn) [Formula IIB, O-{4,6-bisdesoxy-4-[1 S-(1,4,6/5)-4,5,6-trihydroxy-3-hydroxymethylcyclohex-2-en-1-ylamino]-α-D-glucopyranosyl}-(1→4)-D-glucopyranose] | – | – | – | –

SMILES | Maltase Inhibition (maltase) | Blood Glucose (Mean ± SD) (saccharase; [4]) | Blood Glucose (Mean ± SD) (saccharase; [5]) | Blood Glucose (Mean ± SD) (saccharase; [6]) | Blood Glucose (Mean ± SD) (saccharase; [7]) | Blood Glucose (Mean ± SD) (saccharase; [8]) | Blood Glucose (Mean ± SD) (saccharase; [9]) | ED50 (saccharase; [10]) | α-Amylase Inhibition (pancreas-α-amylase) | α-Amylase Inhibition In Vitro (pancreas-α-amylase) | amylase inhibiting activity of isolated product (pancreas-α-amylase) | Blood Glucose (Mean ± SD) (saccharase; 2.5 g sucrose + 200 SIU oral, 15 Min.) | Blood Glucose (Mean ± SD) (saccharase; 2.5 g sucrose + 200 SIU oral, 30 Min.) | Blood Glucose (Mean ± SD) (saccharase; 2.5 g sucrose + 200 SIU oral, 45 Min.) | Blood Glucose (Mean ± SD) (saccharase; [1]) | Blood Glucose (Mean ± SD) (saccharase; [2]) | Blood Glucose (Mean ± SD) (saccharase; [3]) | ED50 (saccharase; rat)
C[C@H]1O[C@H](O[C@H]2[C@H](O)[C@@H](O)[C@@H](O[C@H]3[C@H](O)[C@@H](O)C(O)O[C@@H]3CO)O[C@@H]2CO)[C@H](O)[C@@H](O)[C@@H]1N[C@H]1C=C(CO)[C@@H](O)[C@H](O)[C@H]1O (stereo partly drawn) [Formula IIIB, O-{4,6-bisdesoxy-4-[1 S-(1,4,6/5)-4,5,6-trihydroxy-3-hydroxymethylcyclohex-2-en-1-ylamino]-α-D-glucopyranosyl}-(1→4)-O-α-D-glucopyranosyl-(1→4)-D-glucopyranose] | 15,000 MIU/g | – | – | – | 58 ± 5.9 mg% | 92 ± 4.0 mg% | 98 ± 5.0 mg% | – | 300,000 AIU/g | 300 AIU/mg | 0.3 × 10^6 AIU/g | – | – | – | 71 ± 3.7 mg% | 100 ± 7.3 mg% | 107 ± 2.4 mg% | 0.21 mg/kg
